Results on 4 compounds are retold here after patent US20180296453A1, “Oral Care Product and Methods of Use and Manufacture Thereof” (Colgate-Palmolive Company, priority 2008, published 2018).

One data set relates to S. sanguis. The data set is described as follows: Ammonia production by S. sanguis at pH 4.0. The following applies: 5 millimolar, pH 4.0, 0.1% sucrose, 37° C., 30 minutes. The data set is classed as cell-based. Here is the method: An overnight culture of S. sanguis was grown at 37° C. in trypticase soy broth (Becton Dickinson, Sparks, Md.). The culture was centrifuged at 5,000 rpm for 5 minutes at 1 milliliter at a time into preweighed tubes in order to accumulate approximately 5 milligrams of wet pellet weight. The pellet was then resuspended into 20 millimolar potassium phosphate buffer (JT Baker, Phillipsburg, N.J.), pH 4.0, to simulate a stressed environment for the bacterial cell where ammonia would be produced for survival. The final concentration was 5 milligram per milliliter. To this final concentration, a 5 millimolar final concentration of L-arginine, L-citrulline, or L-ornithine was added along with a 0.1% final concentration of sucrose (VWR, West Chester, Pa.). This mixture was then incubated at 37° C. in a shaking water bath for 30 minutes before ammonia production was determined.
In order to analyze for ammonia, an Ammonia Assay kit was used from Diagnostic Chemicals Limited (Oxford, Conn.). The intended use of this specific kit is for the in vitro quantification of ammonia in plasma, but the procedure was modified in order to determine and quantify the ammonia production in plaque and/or bacteria.

The conditions of data set [1]: cited from earlier work.

Molecules are shown by their SMILES.

Consider `N=C(N)NCCC[C@H](N)C(=O)O` [L-Arginine, L-arginine], for which the Ammonia in the data set on S. sanguis (Mean of 6 trials) turned out to be 1.06 ppm; in the data set on S. sanguis (Trial 1) it was 0.509 ppm; with S. sanguis (Trial 2), 0.866 ppm; in the data set with S. sanguis (Trial 3) it was 2.20 ppm; in the data set with S. sanguis (Trial 4), 1.62 ppm; with S. sanguis (Trial 5) it was 0.5 ppm. The compound also yielded an Ammonia with S. sanguis (Trial 6) of 0.679 ppm.

With `NC(=O)NCCC[C@H](N)C(=O)O` [L-Citrulline, L-citrulline], the Ammonia in the data set with S. sanguis (Mean of 6 trials) came out at 0.951 ppm; in the data set with S. sanguis (Trial 1) it was 0.185 ppm; in the data set on S. sanguis (Trial 2) it was 0.346 ppm; with S. sanguis (Trial 3), 0.332 ppm; with S. sanguis (Trial 4), 0.194 ppm; in the data set on S. sanguis (Trial 5), 0.226 ppm. In the data set on S. sanguis (Trial 6), this compound registered an Ammonia of 0.951 ppm.

As for `NCCC[C@H](N)C(=O)O` [L-Ornithine, L-ornithine], the Ammonia with S. sanguis (Mean of 6 trials) is listed as 0.134 ppm; in the data set with S. sanguis (Trial 1), 0.185 ppm; with S. sanguis (Trial 2), 0.260 ppm; in the data set with S. sanguis (Trial 3) it was 0.047 ppm; in the data set on S. sanguis (Trial 4), 0.0 ppm; with S. sanguis (Trial 5), 0.181 ppm. The compound further showed an Ammonia with S. sanguis (Trial 6) of 0.135 ppm.

As for `Oc1cc(Cl)ccc1Oc1ccc(Cl)cc1Cl` [triclosan, 5-chloro-2-(2,4-dichlorophenoxy)phenol], in data set [1], the “solubility in water (in words)” value is listed as “only slightly soluble in water”.
